From patent publication US20230085307A1, “PYRIDAZINONE COMPOUND AND HERBICIDE” (NISSAN CHEMICAL CORPORATION, priority 2019, published 2023)

Assays:
late watergrass = experiment: Test Example 1: herbicidal activity, application before weed generation under submerged conditions (Table 16, symbol A); type: in vivo, late watergrass (Echinochloa oryzicola); conditions: amount of applied herbicide 320 g/ha
Procedure, shortened: (§1)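 Emulsion formulation, water-diluted to set dose, was put onto the flooded surface (4 cm depth, alluvial soil) the same day weeds were sown and 2.5-leaf rice transplanted. After 3 weeks at 25-30 °C under glass, each species was rated 0 (≤5% kill) to 5 (≥90% kill).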

Japanese bulrush = experiment: Test Example 1: herbicidal activity, application before weed generation under submerged conditions (Table 16, symbol B); type: in vivo, Japanese bulrush (Schoenoplectus juncoides); conditions: amount of applied herbicide 320 g/ha
Procedure, shortened: as §1

oval-leafed pondweed = experiment: Test Example 1: herbicidal activity, application before weed generation under submerged conditions (Table 16, symbol C); type: in vivo, oval-leafed pondweed (Monochoria vaginalis); conditions: amount of applied herbicide 320 g/ha
Procedure, shortened: as §1

barnyard grass [1] = experiment: Test Example 3: herbicidal effect by foliage application, Wagner pot (Table 18, symbol H); type: in vivo, barnyard grass (Echinochloa crus-galli); conditions: 320 g/ha
Procedure, shortened: (§2)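 Plants were sown in alluvial soil held under 0.1–0.5 cm standing water and grown 14 days in a greenhouse at 25–30 °C. An emulsifiable formulation, water-diluted to the set dose, was then sprayed onto the foliage, and effects were scored three weeks later using previously defined criteria.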

Chinese sprangletop = experiment: Test Example 3: herbicidal effect by foliage application, Wagner pot (Table 18, symbol D); type: in vivo, chinese sprangletop (Leptochloa chinensis); conditions: 320 g/ha
Procedure, shortened: as §2

rice flat sedge = experiment: Test Example 3: herbicidal effect by foliage application, Wagner pot (Table 18, symbol E); type: in vivo, rice flat sedge (Cyperus iria); conditions: 320 g/ha
Procedure, shortened: as §2

southern crabgrass [2] = experiment: Test Example 4: herbicidal effect by soil treatment (Table 19, symbol F); type: in vivo, southern crabgrass (Digitaria ciliaris); conditions: amount of applied herbicide 320 g/ha
Procedure, shortened: (§3)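 Herbicidal effect was rated 3 weeks after treatment, using the scoring criteria of an earlier test. The compound, formulated as an emulsion and diluted in water to a set herbicide amount, had been sprayed uniformly on soil over freshly sown seeds. Growth took place in a greenhouse at 25° C. to 30° C.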

green foxtail [3] = experiment: Test Example 4: herbicidal effect by soil treatment (Table 19, symbol G); type: in vivo, green foxtail (Setaria viridis); conditions: amount of applied herbicide 320 g/ha
Procedure, shortened: as §3

barnyard grass [4] = experiment: Test Example 4: herbicidal effect by soil treatment (Table 19, symbol H); type: in vivo, barnyard grass (Echinochloa crus-galli); conditions: amount of applied herbicide 320 g/ha
Procedure, shortened: as §3

wild oat [5] = experiment: Test Example 4: herbicidal effect by soil treatment (Table 19, symbol I); type: in vivo, wild oat (Avena fatua); conditions: amount of applied herbicide 320 g/ha
Procedure, shortened: as §3

blackgrass [6] = experiment: Test Example 4: herbicidal effect by soil treatment (Table 19, symbol J); type: in vivo, blackgrass (Alopecurus myosuroides); conditions: amount of applied herbicide 320 g/ha
Procedure, shortened: as §3

Italian ryegrass [7] = experiment: Test Example 4: herbicidal effect by soil treatment (Table 19, symbol K); type: in vivo, Italian ryegrass (Lolium multiflorum); conditions: amount of applied herbicide 320 g/ha
Procedure, shortened: as §3

windgrass [8] = experiment: Test Example 4: herbicidal effect by soil treatment (Table 19, symbol L); type: in vivo, windgrass (Apera spica-venti); conditions: amount of applied herbicide 320 g/ha
Procedure, shortened: as §3

velvetleaf [9] = experiment: Test Example 4: herbicidal effect by soil treatment (Table 19, symbol M); type: in vivo, velvetleaf (Abutilon theophrasti); conditions: amount of applied herbicide 320 g/ha
Procedure, shortened: as §3

redroot pigweed [10] = experiment: Test Example 4: herbicidal effect by soil treatment (Table 19, symbol N); type: in vivo, redroot pigweed (Amaranthus retroflexus); conditions: amount of applied herbicide 320 g/ha
Procedure, shortened: as §3

lambsquarters [11] = experiment: Test Example 4: herbicidal effect by soil treatment (Table 19, symbol O); type: in vivo, lambsquarters (Chenopodium album); conditions: amount of applied herbicide 320 g/ha
Procedure, shortened: as §3

chickweed [12] = experiment: Test Example 4: herbicidal effect by soil treatment (Table 19, symbol P); type: in vivo, common chickweed (Stellaria media); conditions: amount of applied herbicide 320 g/ha
Procedure, shortened: as §3

false cleavers [13] = experiment: Test Example 4: herbicidal effect by soil treatment (Table 19, symbol Q); type: in vivo, false cleavers (Galium spurium); conditions: amount of applied herbicide 320 g/ha
Procedure, shortened: as §3

persian speedwell [14] = experiment: Test Example 4: herbicidal effect by soil treatment (Table 19, symbol R); type: in vivo, Persian speedwell (Veronica persica); conditions: amount of applied herbicide 320 g/ha
Procedure, shortened: as §3

southern crabgrass [15] = experiment: Test Example 5: herbicidal effect by foliage application, plastic box (Table 20, symbol F); type: in vivo, southern crabgrass (Digitaria ciliaris)
Procedure, shortened: (§4)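 Foliar spray test: emulsion formulation diluted in water to a set application rate, sprayed onto 14-day-old plants raised in diluvial soil at 25° C to 30° C under glass. Both herbicidal effect and crop effect rated visually three weeks later.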

green foxtail [16] = experiment: Test Example 5: herbicidal effect by foliage application, plastic box (Table 20, symbol G); type: in vivo, green foxtail (Setaria viridis)
Procedure, shortened: as §4

barnyard grass [17] = experiment: Test Example 5: herbicidal effect by foliage application, plastic box (Table 20, symbol H); type: in vivo, barnyard grass (Echinochloa crus-galli)
Procedure, shortened: as §4

wild oat [18] = experiment: Test Example 5: herbicidal effect by foliage application, plastic box (Table 20, symbol I); type: in vivo, wild oat (Avena fatua)
Procedure, shortened: as §4

blackgrass [19] = experiment: Test Example 5: herbicidal effect by foliage application, plastic box (Table 20, symbol J); type: in vivo, blackgrass (Alopecurus myosuroides)
Procedure, shortened: as §4

Italian ryegrass [20] = experiment: Test Example 5: herbicidal effect by foliage application, plastic box (Table 20, symbol K); type: in vivo, Italian ryegrass (Lolium multiflorum)
Procedure, shortened: as §4

windgrass [21] = experiment: Test Example 5: herbicidal effect by foliage application, plastic box (Table 20, symbol L); type: in vivo, windgrass (Apera spica-venti)
Procedure, shortened: as §4

velvetleaf [22] = experiment: Test Example 5: herbicidal effect by foliage application, plastic box (Table 20, symbol M); type: in vivo, velvetleaf (Abutilon theophrasti)
Procedure, shortened: as §4

redroot pigweed [23] = experiment: Test Example 5: herbicidal effect by foliage application, plastic box (Table 20, symbol N); type: in vivo, redroot pigweed (Amaranthus retroflexus)
Procedure, shortened: as §4

lambsquarters [24] = experiment: Test Example 5: herbicidal effect by foliage application, plastic box (Table 20, symbol O); type: in vivo, lambsquarters (Chenopodium album)
Procedure, shortened: as §4

chickweed [25] = experiment: Test Example 5: herbicidal effect by foliage application, plastic box (Table 20, symbol P); type: in vivo, common chickweed (Stellaria media)
Procedure, shortened: as §4

false cleavers [26] = experiment: Test Example 5: herbicidal effect by foliage application, plastic box (Table 20, symbol Q); type: in vivo, false cleavers (Galium spurium)
Procedure, shortened: as §4

persian speedwell [27] = experiment: Test Example 5: herbicidal effect by foliage application, plastic box (Table 20, symbol R); type: in vivo, Persian speedwell (Veronica persica)
Procedure, shortened: as §4

[28] = foliage application, 320 g/ha, three weeks after application
[29] = amount of applied herbicide 320 g/ha, foliage application after 14-day growth, evaluated three weeks after application

Row | SMILES | Herbicidal effect, A: late watergrass (late watergrass) | Herbicidal effect, B: Japanese bulrush (Japanese bulrush) | Herbicidal effect, C: oval-leafed pondweed (oval-leafed pondweed) | herbicidal effect on barnyard grass (H) (barnyard grass [1]) | herbicidal effect on Chinese sprangletop (D) (Chinese sprangletop) | herbicidal effect on rice flat sedge (E) (rice flat sedge) | F: southern crabgrass, herbicidal effect grade (southern crabgrass [2]) | G: green foxtail, herbicidal effect grade (green foxtail [3]) | H: barnyard grass, herbicidal effect grade (barnyard grass [4]) | I: wild oat, herbicidal effect grade (wild oat [5]) | J: blackgrass, herbicidal effect grade (blackgrass [6]) | K: Italian ryegrass, herbicidal effect grade (Italian ryegrass [7]) | L: windgrass, herbicidal effect grade (windgrass [8]) | M: velvetleaf, herbicidal effect grade (velvetleaf [9]) | N: redroot pigweed, herbicidal effect grade (redroot pigweed [10]) | O: lambsquarters, herbicidal effect grade (lambsquarters [11]) | P: chickweed, herbicidal effect grade (chickweed [12]) | Q: false cleavers, herbicidal effect grade (false cleavers [13]) | R: persian speedwell, herbicidal effect grade (persian speedwell [14]) | other results
1 | CCCC(=O)Oc1c(C)nn(C)c(=O)c1-c1c(-c2ccc(SC)cc2)sc2cc(OC)ccc12 [3-075] | 1 (Herbicidal rate of 5% or more and less than 20%) | 1 (Herbicidal rate of 5% or more and less than 20%) | 2 (Herbicidal rate of 20% or more and less than 40%) | 0 (Herbicidal rate of 5% or less (almost no effect)) | 3 (Herbicidal rate of 40% or more and less than 70%) | 3 (Herbicidal rate of 40% or more and less than 70%) | 0 (Herbicidal rate of 5% or less (almost no effect)) | 0 (Herbicidal rate of 5% or less (almost no effect)) | 0 (Herbicidal rate of 5% or less (almost no effect)) | 0 (Herbicidal rate of 5% or less (almost no effect)) | 0 (Herbicidal rate of 5% or less (almost no effect)) | 0 (Herbicidal rate of 5% or less (almost no effect)) | 0 (Herbicidal rate of 5% or less (almost no effect)) | 0 (Herbicidal rate of 5% or less (almost no effect)) | 3 (Herbicidal rate of 40% or more and less than 70%) | 3 (Herbicidal rate of 40% or more and less than 70%) | 2 (Herbicidal rate of 20% or more and less than 40%) | 0 (Herbicidal rate of 5% or less (almost no effect)) | 4 (Herbicidal rate of 70% or more and less than 90%) | F: southern crabgrass, herbicidal effect grade (southern crabgrass [15]; [28]): 3 (Herbicidal rate of 40% or more and less than 70%); G: green foxtail, herbicidal effect grade (green foxtail [16]; [28]): 3 (Herbicidal rate of 40% or more and less than 70%); H: barnyard grass, herbicidal effect grade (barnyard grass [17]; [28]): 3 (Herbicidal rate of 40% or more and less than 70%); I: wild oat, herbicidal effect grade (wild oat [18]; [28]): 0 (Herbicidal rate of 5% or less (almost no effect)); J: blackgrass, herbicidal effect grade (blackgrass [19]; [28]): 0 (Herbicidal rate of 5% or less (almost no effect)); K: Italian ryegrass, herbicidal effect grade (Italian ryegrass [20]; [28]): 0 (Herbicidal rate of 5% or less (almost no effect)); L: windgrass, herbicidal effect grade (windgrass [21]; [28]): 0 (Herbicidal rate of 5% or less (almost no effect)); M: velvetleaf, herbicidal effect grade (velvetleaf [22]; [28]): 0 (Herbicidal rate of 5% or less (almost no effect)); N: redroot pigweed, herbicidal effect grade (redroot pigweed [23]; [28]): 4 (Herbicidal rate of 70% or more and less than 90%); O: lambsquarters, herbicidal effect grade (lambsquarters [24]; [28]): 4 (Herbicidal rate of 70% or more and less than 90%); P: chickweed, herbicidal effect grade (chickweed [25]; [28]): 5 (Herbicidal rate of 90% or more (almost completely withered)); Q: false cleavers, herbicidal effect grade (false cleavers [26]; [28]): 5 (Herbicidal rate of 90% or more (almost completely withered)); R: persian speedwell, herbicidal effect grade (persian speedwell [27]; [28]): 5 (Herbicidal rate of 90% or more (almost completely withered))
2 | CCCC(=O)Oc1c(C)nn(C)c(=O)c1-c1c(-c2ccccc2OCC)sc2cc(F)c(F)cc12 [5-017] | 3 (Herbicidal rate of 40% or more and less than 70%) | 2 (Herbicidal rate of 20% or more and less than 40%) | 2 (Herbicidal rate of 20% or more and less than 40%) | 5 (Herbicidal rate of 90% or more (almost completely withered)) | 0 (Herbicidal rate of 5% or less (almost no effect)) | 5 (Herbicidal rate of 90% or more (almost completely withered)) | 4 (Herbicidal rate of 70% or more and less than 90%) | 4 (Herbicidal rate of 70% or more and less than 90%) | 4 (Herbicidal rate of 70% or more and less than 90%) | 3 (Herbicidal rate of 40% or more and less than 70%) | 0 (Herbicidal rate of 5% or less (almost no effect)) | 0 (Herbicidal rate of 5% or less (almost no effect)) | 2 (Herbicidal rate of 20% or more and less than 40%) | 3 (Herbicidal rate of 40% or more and less than 70%) | 5 (Herbicidal rate of 90% or more (almost completely withered)) | 4 (Herbicidal rate of 70% or more and less than 90%) | 4 (Herbicidal rate of 70% or more and less than 90%) | 4 (Herbicidal rate of 70% or more and less than 90%) | 5 (Herbicidal rate of 90% or more (almost completely withered)) | Herbicidal effect by foliage application, F: southern crabgrass (southern crabgrass [15]; [29]): 1 (Herbicidal rate of 5% or more and less than 20%); Herbicidal effect by foliage application, G: green foxtail (green foxtail [16]; [29]): 0 (Herbicidal rate of 5% or less (almost no effect)); Herbicidal effect by foliage application, H: barnyard grass (barnyard grass [17]; [29]): 3 (Herbicidal rate of 40% or more and less than 70%); Herbicidal effect by foliage application, I: wild oat (wild oat [18]; [29]): 3 (Herbicidal rate of 40% or more and less than 70%); Herbicidal effect by foliage application, J: blackgrass (blackgrass [19]; [29]): 4 (Herbicidal rate of 70% or more and less than 90%); Herbicidal effect by foliage application, K: Italian ryegrass (Italian ryegrass [20]; [29]): 0 (Herbicidal rate of 5% or less (almost no effect)); Herbicidal effect by foliage application, L: windgrass (windgrass [21]; [29]): 3 (Herbicidal rate of 40% or more and less than 70%); Herbicidal effect by foliage application, M: velvetleaf (velvetleaf [22]; [29]): 4 (Herbicidal rate of 70% or more and less than 90%); Herbicidal effect by foliage application, N: redroot pigweed (redroot pigweed [23]; [29]): 2 (Herbicidal rate of 20% or more and less than 40%); Herbicidal effect by foliage application, O: lambsquarters (lambsquarters [24]; [29]): 1 (Herbicidal rate of 5% or more and less than 20%); Herbicidal effect by foliage application, P: chickweed (chickweed [25]; [29]): 5 (Herbicidal rate of 90% or more (almost completely withered)); Herbicidal effect by foliage application, Q: false cleavers (false cleavers [26]; [29]): 5 (Herbicidal rate of 90% or more (almost completely withered)); Herbicidal effect by foliage application, R: persian speedwell (persian speedwell [27]; [29]): 5 (Herbicidal rate of 90% or more (almost completely withered))
